Here are results for 18 compounds from BindingDB's records for doi:10.1016/j.chembiol.2016.02.015 (Max Planck Institute of Molecular Physiology, 2016).

Assay [1] has as its target Casein kinase I isoform epsilon (Homo sapiens, UniProt P49674). The assay is described as follows: KinaseGlo Plus Luminescent Assay. Particulars: pH 7.5. Here is the method: (§1) A stock solution of 5 % DMSO (BioReagent for molecular biology, Sigma Aldrich) in water was prepared. The CK1 substrate peptide RRKDLHDDEEDEAMSITA (Jena Bioscience, cat. no. PE-206, 2 mM stock solution in water) was diluted in water to a final concentration of 250 μM. CK1δ or CK1Ɛ kinases were diluted with CK1 dilution buffer to 50 ng / µL. In addition, fresh Reaction buffer was prepared containing 250 mM Tris-HCl (pH 7.5), 50 mM MgCl2, 5 mM DTT and 0.5 mg / mL bovine serum albumin (BSA). Compounds were serially diluted in 5 % DMSO solution to the desired concentrations (maximal concentration employed in the assay was 50 µM). Additional samples included blank sample containing Reaction buffer, water and CK1δ / CK1Ɛ kinase and control sample containing Reaction buffer, CK1 substrate peptide and CK1δ / CK1Ɛ kinase. CK1 substrate peptide, Reaction buffer and CK1δ / CK1Ɛ kinase stock solutions were mixed in 1:1:1 ratio. 6 μL of this mixtur
(Kinase-Glo reads ATP consumption through a luciferase reaction.)

The target in assay [2] is Casein kinase I isoform delta (Homo sapiens, UniProt P48730). The assay is described as follows: KinaseGlo Plus Luminescent Assay. Particulars: pH 7.5. Here is the method: as §1
Casein kinase I isoform delta, sequence (P48730 whole entry, canonical isoform): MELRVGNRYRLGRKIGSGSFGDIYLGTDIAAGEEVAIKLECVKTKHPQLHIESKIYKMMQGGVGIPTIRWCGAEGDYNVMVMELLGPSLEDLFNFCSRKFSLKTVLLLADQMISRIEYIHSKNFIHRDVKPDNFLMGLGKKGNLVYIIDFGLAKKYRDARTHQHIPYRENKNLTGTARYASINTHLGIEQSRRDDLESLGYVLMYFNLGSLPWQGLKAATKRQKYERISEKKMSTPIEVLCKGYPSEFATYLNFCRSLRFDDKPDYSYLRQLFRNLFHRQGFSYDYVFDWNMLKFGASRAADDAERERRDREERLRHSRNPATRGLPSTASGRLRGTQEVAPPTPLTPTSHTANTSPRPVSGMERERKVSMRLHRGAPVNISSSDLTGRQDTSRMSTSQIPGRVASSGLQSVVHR
Assay [3] concerns the target Casein kinase I isoform alpha (Homo sapiens, UniProt P48729). The assay is described as follows: Radiometric-Based Assay (CK1α). Here is the method:
Single-point measurements analyses and subsequent dose-dependent investigations of selected pteridine derivatives for inhibition of CK1α were performed at Reaction Biology (USA) using a radiometric-based assay and ATP concentration of 10 µM. For more details related to the experimental conditions employed please consult the following websites: http://www.reactionbiology.com/webapps/site/KinaseDetail.aspx.

Assay [4] concerns the target T1, Eukaryotic elongation factor 2 kinase (Homo sapiens, UniProt O00418).
T1 sequence (O00418 whole entry): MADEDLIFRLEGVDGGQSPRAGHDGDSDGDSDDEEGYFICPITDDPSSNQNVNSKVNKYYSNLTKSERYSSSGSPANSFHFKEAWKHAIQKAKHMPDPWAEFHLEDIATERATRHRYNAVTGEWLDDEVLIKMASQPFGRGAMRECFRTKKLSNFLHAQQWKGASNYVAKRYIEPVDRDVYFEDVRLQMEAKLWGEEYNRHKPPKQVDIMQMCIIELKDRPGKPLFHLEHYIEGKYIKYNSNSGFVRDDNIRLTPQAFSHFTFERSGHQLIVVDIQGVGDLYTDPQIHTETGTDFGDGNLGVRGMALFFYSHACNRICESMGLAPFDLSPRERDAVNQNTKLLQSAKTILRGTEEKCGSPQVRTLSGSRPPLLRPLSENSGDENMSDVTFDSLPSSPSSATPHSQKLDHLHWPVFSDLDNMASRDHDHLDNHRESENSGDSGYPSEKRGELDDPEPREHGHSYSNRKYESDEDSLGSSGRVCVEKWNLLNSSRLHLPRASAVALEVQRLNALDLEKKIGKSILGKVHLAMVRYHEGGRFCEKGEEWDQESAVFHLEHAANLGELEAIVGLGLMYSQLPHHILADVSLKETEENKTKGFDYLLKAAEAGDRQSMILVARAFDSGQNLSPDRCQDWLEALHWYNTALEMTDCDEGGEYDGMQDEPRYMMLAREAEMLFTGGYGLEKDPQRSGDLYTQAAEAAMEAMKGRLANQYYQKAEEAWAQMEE
The assay is described as follows: Radiometric-Based Assay (Epiblastin A). An excerpt:
(§2) Dose-dependent investigations of Epiblastin A against BrSK1, Egfr, eEF2k, Mknk2, Ripk2 and Stk10 have been performed under the same experimental setup, i.e. at Km-ATP value. Half-maximal inhibitory concentrations (IC50) were obtained by fitting the obtained data with three parameter nonlinear regression analysis using GraphPad Prism version 6.00 for Windows (GraphPad Software, USA). For more details related to the experimental conditions employed at Eurofins please consult the following website: http://www.eurofins.com/pharma-services/pharma-discovery-services/services/in-vitropharmacology/kinases/biochemical.aspx

Assay [5] addresses T2, Epidermal growth factor receptor [1-973] (Homo sapiens, UniProt P00533).
T2 construct: 1-973
The assay is described as follows: Radiometric-Based Assay (Epiblastin A).
Source text: as §2

The target in assay [6] is MAP kinase-interacting serine/threonine-protein kinase 2 (Homo sapiens, UniProt Q9HBH9). The assay is described as follows: Radiometric-Based Assay (Epiblastin A).
MAP kinase-interacting serine/threonine-protein kinase 2, sequence (Q9HBH9 whole entry): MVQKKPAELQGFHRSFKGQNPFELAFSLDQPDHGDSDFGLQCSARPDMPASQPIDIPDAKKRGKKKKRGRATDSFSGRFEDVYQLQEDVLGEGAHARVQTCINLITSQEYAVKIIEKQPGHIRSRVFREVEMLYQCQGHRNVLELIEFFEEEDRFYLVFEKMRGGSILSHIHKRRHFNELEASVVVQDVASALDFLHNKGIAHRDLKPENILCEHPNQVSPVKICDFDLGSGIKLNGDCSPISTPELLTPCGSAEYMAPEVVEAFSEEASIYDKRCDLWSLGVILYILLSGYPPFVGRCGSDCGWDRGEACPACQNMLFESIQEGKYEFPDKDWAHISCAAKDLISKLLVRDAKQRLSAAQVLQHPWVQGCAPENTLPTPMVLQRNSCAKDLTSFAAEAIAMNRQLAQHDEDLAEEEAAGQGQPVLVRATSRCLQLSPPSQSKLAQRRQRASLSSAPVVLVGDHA
Source text: as §2

The target of assay [7] is Receptor-interacting serine/threonine-protein kinase 2 (Homo sapiens, UniProt O43353). The assay is described as follows: Radiometric-Based Assay (Epiblastin A).
Receptor-interacting serine/threonine-protein kinase 2, sequence (O43353 whole entry): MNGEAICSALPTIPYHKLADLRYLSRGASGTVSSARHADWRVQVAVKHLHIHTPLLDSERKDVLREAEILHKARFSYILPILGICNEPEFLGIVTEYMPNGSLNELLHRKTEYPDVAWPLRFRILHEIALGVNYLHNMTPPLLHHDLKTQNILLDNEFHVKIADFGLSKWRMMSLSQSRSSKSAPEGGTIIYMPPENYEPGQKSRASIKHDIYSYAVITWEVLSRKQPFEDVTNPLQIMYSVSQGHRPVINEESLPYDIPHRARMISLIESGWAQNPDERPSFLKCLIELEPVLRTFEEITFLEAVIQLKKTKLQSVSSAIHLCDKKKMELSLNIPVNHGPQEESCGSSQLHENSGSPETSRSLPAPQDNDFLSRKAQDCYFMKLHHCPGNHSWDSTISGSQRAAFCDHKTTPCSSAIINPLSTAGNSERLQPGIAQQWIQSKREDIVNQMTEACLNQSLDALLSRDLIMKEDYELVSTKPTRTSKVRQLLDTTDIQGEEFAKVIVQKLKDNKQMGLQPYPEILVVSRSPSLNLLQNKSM
Source text: as §2

Assay [8] deals with T3, Serine/threonine-protein kinase BRSK1 (Homo sapiens, UniProt Q8TDC3).
T3 sequence (Q8TDC3 whole entry): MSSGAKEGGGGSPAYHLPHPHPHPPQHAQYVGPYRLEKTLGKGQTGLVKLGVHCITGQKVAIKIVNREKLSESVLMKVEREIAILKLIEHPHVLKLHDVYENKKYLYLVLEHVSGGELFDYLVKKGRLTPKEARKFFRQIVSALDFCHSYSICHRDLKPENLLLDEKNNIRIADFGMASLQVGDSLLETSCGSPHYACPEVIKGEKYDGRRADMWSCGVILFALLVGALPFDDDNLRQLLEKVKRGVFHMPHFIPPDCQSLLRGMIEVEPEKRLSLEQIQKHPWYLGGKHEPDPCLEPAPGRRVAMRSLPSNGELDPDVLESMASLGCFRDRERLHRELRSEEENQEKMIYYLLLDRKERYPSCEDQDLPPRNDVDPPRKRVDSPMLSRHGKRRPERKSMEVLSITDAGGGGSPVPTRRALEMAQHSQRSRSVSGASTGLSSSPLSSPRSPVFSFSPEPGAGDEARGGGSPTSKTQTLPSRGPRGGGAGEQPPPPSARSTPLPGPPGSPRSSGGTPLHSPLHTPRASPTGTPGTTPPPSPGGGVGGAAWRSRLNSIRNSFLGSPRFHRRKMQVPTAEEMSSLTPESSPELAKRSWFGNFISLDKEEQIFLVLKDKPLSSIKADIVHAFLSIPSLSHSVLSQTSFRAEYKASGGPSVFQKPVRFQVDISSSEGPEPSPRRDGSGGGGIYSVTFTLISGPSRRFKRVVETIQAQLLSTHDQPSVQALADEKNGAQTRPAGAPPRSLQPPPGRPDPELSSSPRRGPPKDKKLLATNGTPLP
The assay is described as follows: Radiometric-Based Assay (Epiblastin A).
Source text: as §2

The structures appear in SMILES notation. pIC50: −log10 of the molar value.

Casein kinase I isoform alpha, sequence (P48729 whole entry, canonical isoform): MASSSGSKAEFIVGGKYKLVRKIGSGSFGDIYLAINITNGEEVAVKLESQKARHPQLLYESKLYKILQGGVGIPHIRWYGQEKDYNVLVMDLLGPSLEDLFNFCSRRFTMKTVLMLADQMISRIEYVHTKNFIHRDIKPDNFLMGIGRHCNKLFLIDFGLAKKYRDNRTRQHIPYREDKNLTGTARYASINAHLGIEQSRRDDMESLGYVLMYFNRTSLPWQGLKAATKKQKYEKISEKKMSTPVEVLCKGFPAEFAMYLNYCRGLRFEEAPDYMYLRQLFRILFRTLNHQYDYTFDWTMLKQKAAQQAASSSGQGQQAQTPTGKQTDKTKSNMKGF
Casein kinase I isoform epsilon, sequence (P49674 whole entry, canonical isoform): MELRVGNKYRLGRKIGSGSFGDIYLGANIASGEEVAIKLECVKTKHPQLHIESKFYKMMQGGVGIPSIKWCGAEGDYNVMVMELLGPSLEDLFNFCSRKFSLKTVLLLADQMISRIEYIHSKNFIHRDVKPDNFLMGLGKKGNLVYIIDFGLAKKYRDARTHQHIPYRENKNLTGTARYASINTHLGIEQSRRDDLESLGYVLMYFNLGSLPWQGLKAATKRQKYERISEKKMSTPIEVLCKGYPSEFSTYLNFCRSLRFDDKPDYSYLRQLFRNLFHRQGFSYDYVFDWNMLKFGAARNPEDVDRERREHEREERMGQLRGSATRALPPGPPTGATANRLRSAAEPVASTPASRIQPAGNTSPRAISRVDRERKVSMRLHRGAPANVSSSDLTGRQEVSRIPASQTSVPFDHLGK
T2 sequence (P00533 1-973): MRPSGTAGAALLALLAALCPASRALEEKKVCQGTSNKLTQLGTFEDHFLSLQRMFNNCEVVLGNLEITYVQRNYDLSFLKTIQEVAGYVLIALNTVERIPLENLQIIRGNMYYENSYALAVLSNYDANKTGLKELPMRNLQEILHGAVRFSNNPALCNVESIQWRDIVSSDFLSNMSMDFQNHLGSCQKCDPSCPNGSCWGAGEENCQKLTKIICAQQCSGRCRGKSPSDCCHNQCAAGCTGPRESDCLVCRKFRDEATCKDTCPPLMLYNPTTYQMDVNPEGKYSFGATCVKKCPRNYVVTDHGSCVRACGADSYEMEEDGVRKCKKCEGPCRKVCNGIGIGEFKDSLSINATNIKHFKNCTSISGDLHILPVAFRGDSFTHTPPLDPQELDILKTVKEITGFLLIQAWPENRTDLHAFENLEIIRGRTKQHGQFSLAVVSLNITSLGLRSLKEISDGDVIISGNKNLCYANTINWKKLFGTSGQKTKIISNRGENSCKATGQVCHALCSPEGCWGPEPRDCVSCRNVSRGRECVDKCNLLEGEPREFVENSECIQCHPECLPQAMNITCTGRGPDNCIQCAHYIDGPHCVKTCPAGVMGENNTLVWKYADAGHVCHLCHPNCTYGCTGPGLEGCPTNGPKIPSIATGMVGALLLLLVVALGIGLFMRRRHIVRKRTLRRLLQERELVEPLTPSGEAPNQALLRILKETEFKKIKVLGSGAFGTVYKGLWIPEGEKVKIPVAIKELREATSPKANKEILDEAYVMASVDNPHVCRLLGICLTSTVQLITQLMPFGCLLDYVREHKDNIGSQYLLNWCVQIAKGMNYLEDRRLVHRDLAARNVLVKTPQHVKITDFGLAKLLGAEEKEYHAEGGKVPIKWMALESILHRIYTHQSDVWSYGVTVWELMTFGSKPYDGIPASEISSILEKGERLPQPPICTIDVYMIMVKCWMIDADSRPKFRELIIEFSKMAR

Turning to `Nc1nc(N)c2nc(-c3csc4ccccc34)c(N)nc2n1` [6-(1-benzothiophen-3-yl)pteridine-2,4,7-triamine (31)], the results for the pIC50 in assay [1], in assay [2] and in assay [3] were 6.22, 5.55 and 5.25, respectively.

Regarding `Nc1nc(N)c2nc(-c3ccc(Cl)cc3Cl)c(N)nc2n1` [6-(2,4-dichlorophenyl)pteridine-2,4,7-triamine (25)], the pIC50 in assay [1] was 5.37; in assay [3] it was 4.25.

With `Nc1nc(N)c2nc(-c3cc(F)ccc3F)c(N)nc2n1` [6-(2,5-difluorophenyl)pteridine-2,4,7-triamine (28)], the pIC50 in assay [1] is 4.42.

For `Nc1nc(N)c2nc(-c3c(Cl)cccc3Cl)c(N)nc2n1` [6-(2,6-dichlorophenyl)pteridine-2,4,7-triamine (24)], in assay [1], the pIC50 is 4.41.

As for `Nc1nc(N)c2nc(-c3c(F)cccc3F)c(N)nc2n1` [6-(2,6-difluorophenyl)pteridine-2,4,7-triamine (27)], the pIC50 in assay [1] was 4.29; in assay [2] it was 4.45.

Turning to `Nc1nc(N)c2nc(-c3ccccc3F)c(N)nc2n1` [6-(2-fluorophenyl)pteridine-2,4,7-triamine (23)], the negative logarithm of the IC50 (pIC50) in assay [1] was 4.55.

As to `Nc1cccc(-c2nc3c(N)nc(N)nc3nc2N)c1` [6-(3-aminophenyl)pteridine-2,4,7-triamine (21)], the pIC50 in assay [1] was 4.91; in assay [2], 4.49.

With `Nc1nc(N)c2nc(-c3cccc(Br)c3)c(N)nc2n1` [6-(3-bromophenyl)pteridine-2,4,7-triamine (18)], the pIC50 is 5.60 in assay [2] and 5.03 in assay [3].

With `Nc1nc(N)c2nc(-c3cccc(F)c3)c(N)nc2n1` [6-(3-fluorophenyl)pteridine-2,4,7-triamine (16)], the pIC50 is 4.84 in assay [1], 4.21 in assay [2] and 4.48 in assay [3].

As to `COc1cccc(-c2nc3c(N)nc(N)nc3nc2N)c1` [6-(3-methoxyphenyl)pteridine-2,4,7-triamine (20)], the negative logarithm of the IC50 (pIC50) in assay [1] was 4.58; in assay [2] it was 4.91.

`Nc1ccc(-c2nc3c(N)nc(N)nc3nc2N)cc1` [6-(4-aminophenyl)pteridine-2,4,7-triamine (10)]: the pIC50 in assay [2] was 4.09.

Take `Nc1nc(N)c2nc(-c3cccnc3)c(N)nc2n1` [6-(pyridin-3-yl)pteridine-2,4,7-triamine (33)]: the pIC50 in assay [1] is 4.81; in assay [2], 4.79.

As to `Nc1nc(N)c2nc(-c3cccs3)c(N)nc2n1` [6-(thiophen-2-yl)pteridine-2,4,7-triamine (32)], the pIC50 in assay [1] is 5.09; in assay [2], 4.61; in assay [3] it was 4.85.

As to `Cc1cccc(-c2nc3c(N)nc(N)nc3nc2N)c1` [6-m-Tolyl-pteridine-2,4,7-triamine], in assay [2], the pIC50 was 4.69.

With `Nc1nc(N)c2nc(-c3ccccc3)cnc2n1` [6-phenylpteridine-2,4-diamine (35)], the pIC50 was 5.22 in assay [1], 4.09 in assay [2] and 4.53 in assay [3].

As to `Nc1nc(N)c2nc(-c3cccc(Oc4ccccc4)c3)c(Cc3ccccc3)nc2n1` [7-benzyl-6-(3-phenoxyphenyl)pteridine-2,4-diamine (36)], the pIC50 in assay [1] is 5.18; in assay [2] it was 5.02; in assay [3], 5.26.

With `Nc1nc(N)c2nc(-c3cccc(Cl)c3)c(N)nc2n1` [Epiblastin A], the pIC50 was 4.56 in assay [4]; 5.08 in assay [5]; 4.35 in assay [6]; 4.42 in assay [7]; 4.62 in assay [8]; 5.33 in assay [1]. The pIC50 in assay [2] is 6.30; in assay [3] it was 5.05.

Regarding `Nc1nc(N)c2nc(-c3ccccc3)c(N)nc2n1` [Pteridine deriv. 11], the pIC50 in assay [1] was 4.57; in assay [2], 4.44; in assay [3] it was 4.43.

For orientation: pIC50 means the IC50 on a negative log10 scale, so that one unit is a factor of ten.
